Converted amounts (≈) assume the structure as drawn.
What was measured:
[1] = test system: Serratia marcessenes IFO 3736; test: Antibacterial test, serial double dilution method (MIC); assay type: cell-based; details: Muller-Hilton agar, 37° C., 24 hours, concentration converted into hinokitiol
From the text: (§1) The clathrate compound of the present invention and non-clathrate compounds were each subjected to an antibacterial test. Aerobic and anaerobic bacteria used in the test are as follows:
Sm: Serratia marcessenes IFO 3736
(§2) The samples used in the antibacterial test are as follows in which butylparabene was used as a control compound. The concentrations of clathrate compounds were all measured by converting into the concentrations of a hinokitiol. Samples of antibacterial agents
(§3) Method: Serial Double Dilution Method
(§4) As for the culture medium, an aqueous solution containing 38 g/l of a Muller-Hilton agar medium (manufactured by DEFCO) was used for aerobic bacteria and an aqueous solution containing 59 g/l of a GAM agar medium (manufactured by Nissui Pharmaceutical Co., Ltd.) for anaerobic bacteria. Each subject compound was added to each corresponding medium in a manner that the concentration of a hinokitiol was 400 μg/ml and diluted according to the serial double dilution method using the same medium. 10 ml of each resulting medium was poured into a plastic Schale with an inside diameter of 90 mm and was solidified. The solidified medium in the Schale was divided. 0.1 ml of a distilled water suspension containing the subject microorganisms (the number of microorganisms: 10^6-10^9/ml) was inoculated into each compartment and incubated at 37° C. for 24 hours. […]

[2] = test system: Escherichia coli IFO 3972; test: as above; assay type: cell-based; details: Muller-Hilton agar, 37° C., 24 hours, concentration converted into hinokitiol
From the text: as §1
Ec: Escherichia coli IFO 3972
as §2, §3, §4

[3] = test system: Proteus vulgaris IFO 3167; test: as above; assay type: cell-based; details: Muller-Hilton agar, 37° C., 24 hours, concentration converted into hinokitiol
From the text: as §1
Pv: Proteus vulgaris IFO 3167
as §2, §3, §4

[4] = test system: Staphylococcus aureus IAM 1011; test: as above; assay type: cell-based; details: Muller-Hilton agar, 37° C., 24 hours, concentration converted into hinokitiol
From the text: as §1
Sa: Staphylococcus aureus IAM 1011
as §2, §3, §4

[5] = test system: Malassezia furfur IFO 0656; test: as above; assay type: cell-based; details: Muller-Hilton agar, 37° C., 24 hours, concentration converted into hinokitiol
From the text: as §1
Mf: Malassezia furfur IFO 0656
as §2, §3, §4

[6] = test system: Corinebacterium xerosis JCM 1324; test: as above; assay type: cell-based; details: Muller-Hilton agar, 37° C., 24 hours; concentration converted into hinokitiol
From the text: as §1
Cx: Corinebacterium xerosis JCM 1324
as §2, §3, §4

[7] = test system: Corynebacterium minutissiumum ATCC 23348; test: as above; assay type: cell-based; details: Muller-Hilton agar, 37° C., 24 hours, concentration converted into hinokitiol
From the text: as §1
Cm: Corynebacterium minutissiumum ATCC 23348
as §2, §3, §4

[8] = Evaluation of the heat stability (sublimation); assay type: physicochemical; details: 1000 mg allowed to stand at 90° C. for 20 hours
From the text: The results of the residual weight, sublimation rate (%) and sublimation rate (%) converted into a hinokitiol were shown in Table 4.

[9] = Solubility in water at 15° C.; assay type: physicochemical
Method: The solubilities of the above various branched CD clathrate compounds prepared in the above examples and reference example in water at 15° C. are shown in Table 1.

[10] = test system: Staphylococcus epidermidis JCM 2414; test: Antibacterial test, serial double dilution method (MIC); assay type: cell-based; details: JCM2414, Muller-Hilton agar, 37° C., 24 hours, concentration converted into hinokitiol
From the text: as §1
Se: Staphylococcus epidermidis JCM 2414
as §2, §3, §4

SMILES	MIC, Sm [1] [µg/mL]	MIC, Ec [2] [µg/mL]	MIC, Pv [3] [µg/mL]	MIC, Sa [4] [µg/mL]	MIC, Mf [5] [µg/mL]	MIC, Cx [6] [µg/mL]	MIC, Cm [7] [µg/mL]	MIC ([1]; Serratia, IFO3736) [µg/mL]	MIC ([2]; Escherichia coli, IFO3972) [µg/mL]	MIC ([3]; Proteus vulgaris, IFO3167) [µg/mL]	Residual weight [8] [mg]	Sublimation rate [8] [%]	Solubility in water [9] [%]	MIC ([4]; Staphylococcus aureus, IAM1011) [µg/mL]	MIC ([5]; Malassezia furfur, IFO0656) [µg/mL]	MIC [10] [µg/mL]	MIC [6] [µg/mL]	MIC ([7]; Corynebacterium, ATCC23348) [µg/mL]
CCCCOC(=O)c1ccc(O)cc1 [Butylparabene]	>400	400 (≈ 2060 µM)	100 (≈ 515 µM)	100 (≈ 515 µM)	100 (≈ 515 µM)	100 (≈ 515 µM)	100 (≈ 515 µM)	–	–	–	–	–	–	–	–	–	–	–
CC(C)c1cccc(=O)c(O)c1 [Hinokitiol]	–	–	–	–	–	–	–	200 (≈ 1220 µM)	50 (≈ 304 µM)	50 (≈ 304 µM)	8	99.2	<0.05	50 (≈ 304 µM)	50 (≈ 304 µM)	50 (≈ 304 µM)	50 (≈ 304 µM)	50 (≈ 304 µM)
CC(C)c1cccc(=O)c([O-])c1.[Na+] [sodium salt of hinokitiol]	–	–	–	–	–	–	–	–	–	–	764	23.6	–	–	–	–	–	–

Source: US6355627B1, “Branched cyclodextrin clathrate compound of hinokitiols and composition containing the same” (Takasago International Corporation, priority 1999, dated 2002)
